Experimental data from BindingDB's records for doi:10.1021/acs.jnatprod.7b00121 (Seoul National University, 2017).

Molecular target: T1, Sortase family protein (Staphylococcus aureus, UniProt Q9S446)
T1 sequence (Q9S446 whole entry): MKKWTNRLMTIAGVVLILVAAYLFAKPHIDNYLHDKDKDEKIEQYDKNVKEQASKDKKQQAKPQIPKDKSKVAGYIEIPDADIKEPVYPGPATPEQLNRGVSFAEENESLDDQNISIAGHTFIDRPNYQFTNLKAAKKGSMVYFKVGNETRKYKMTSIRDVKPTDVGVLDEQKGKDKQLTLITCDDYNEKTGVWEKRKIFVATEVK
Test: Inhibition of Staphylococcus aureus ATCC 6538p SortA expressed in Escherichia coli using Dabcyl-QALPETGEE-Edans as substrate after 1 hr by fluorescence spectrophotometric method

**Q.** `O=C(O)c1cc[c]([Hg][OH])cc1` was tested. Which IC50 did it give?
**A.** The IC50 was 25 µM.
